Laboratory results published in patent publication US20180273528A1 (LES LABORATOIRES SERVIER, priority 2015, published 2018).

Legend:
DYRK1A = DYRK1A (Homo sapiens, UniProt Q13627); assay: Cellular DYRK1 autophosphorylation assay in U2-OS cells; assay type: cell-based; set-up: full-length, wild-type human DYRK1A (NM_001396) with an HA tag; expressed in transfected cells; host or cells: human U2-OS osteosarcoma cells, transient transfection of a pcDNA3.1 plasmid; conditions: U2-OS cells transfected with HA-tagged human DYRK1A, 5 hours exposure; read-out: IC50 (μM) P-Ser520-Dyrk1A -Cell assay
Experimental: On day 2, cells were exposed to a range of concentrations of the test compounds of the invention for 5 hours. […] The relative levels of phospho-Ser520-DYRK1A were assayed using either western blotting or the Mesoscale ELISA platform. For analysis by western blot, lysates were diluted into Laemmli sample buffer (Bio-Rad) containing 5% v/v β-mercaptoethanol, heated for 5 min at 95° C., and resolved on Tris-glycine gels or NuPage Bis-Tris gels (Novex; Invitrogen). Biotinylated molecular weight standards (Cell Signaling Technology) were included in all gels. Proteins were transferred to nitrocellulose membranes (Hybond, ECL; Amersham), which were blocked in Tris-buffered saline/0.1% tween 20 (TBST) containing 5% milk, and probed at 4° C. overnight with anti-phospho-Ser520-DYRK1A antibody (Eurogentec SE6974-75; 0.23 μg/ml in 5% BSA) or anti DYRK1A antibody (Abnova H00001859; 0.5 μg/ml in 5% milk). Peroxidase-conjugated secondary antibodies were diluted into 5% milk and applied to membranes for 1 h at 20° C. Chemiluminescence detection was performed using the ECL plus western blotting detection kit (Amersham) and was recorded on ECL plus hyperfilm (Amersham). Blots were scanned using the Bio-Rad GS-800 calibrated densitometer and quantitative analysis of western blots was performed using TotalLab software (Amersham). IC50 values for inhibition of phospho-Ser520-DYRK1A were calculated from dose-response curves plotting the ratio between phospho-Ser520-DYRK1A and total DYRK1A signals at each concentration. […] Anti-phospho-Ser520-DYRK1A antibody (Eurogentec SE6974-75; […]) and anti DYRK1A antibody (Abnova H00001859; 3 μg/ml) was then added for 1 hour at RT, followed by addition of Sulfa-TAG anti-rabbit detection antibody (ref MSD R32AB; 1 μg/ml) and Sulfa-TAG anti-mouse detection antibody (ref MSD R32-AC-1; 1 μg/ml). After a further 1 hour, Read Buffer was added and plates were read on the Sector Imager 2400 (Mesoscale). IC50 values for inhibition of phospho-Ser520-DYRK1A were calculated from dose-response curves.

[1] = molecular target: T1, His-TEV-DYRK1A Kinase domain (aa127-485) (Homo sapiens, UniProt Q13627); assay: Kinase ADP assay (ADP Hunter), DYRK1A kinase domain; assay type: biochemical; conditions: 20 μM ATP
T1 construct: His-TEV-DYRK1A Kinase domain (aa127-485); His tag (N); TEV protease cleavage site (N)
Experimental: The enzyme reaction was conducted in assay buffer (pH 7.4), containing 15 mM Hepes; 20 mM NaCl; 1 mM EGTA; 10 mM MgCl2; 0.02% Tween20 and 0.1 mg/ml Bovine-y-globulin. Test compounds of the invention were added in reaction buffer in a range of concentrations for 10 minutes at 30° C. in the presence of 20 nM DYRK1A enzyme, 40 μM peptide substrate and 20 μM ATP. Detection reagents (DiscoveRx 90-0083), ADP Hunter Plus Reagent A and then ADP Hunter Plus Reagent B were added. After a following 20 minutes incubation at 30° C., ADP Hunter Plus Stop Solution was added. The fluorescence intensity was measured at 590 nm.

Work on `Cc1nc2ccc(-c3cc(N)nc(N)c3)nc2n1CC1Cc2ccccc21` (single isomer, unassigned) [Example 113, 4-[3-(bicyclo[4.2.0]octa-1,3,5-trien-7-ylmethyl)-2-methyl-3H-imidazo[4,5-b]pyridin-5-yl]pyridine-2,6-diamine] yielded an IC50 (DYRK1A) of 0.243 µM and an IC50 [1] of 0.01 µM.
`Cc1nc2ccc(-c3cc(N)nc(N)c3)nc2n1C[C@H](C)Oc1ccccc1Cl` (single isomer, unassigned) [Example 117] showed an IC50 (DYRK1A) of 0.075 µM and an IC50 [1] of 0.006 µM.
`CC[C@@H](Cn1c(C)nc2ccc(-c3cc(N)nc(N)c3)nc21)Oc1ccccc1` (single isomer, unassigned) [Example 119] was tested, and the IC50 (DYRK1A) was 0.105 µM and the IC50 [1] was 0.004 µM.
For `CC[C@H](Cn1c(C)nc2ccc(-c3cc(N)nc(N)c3)nc21)Oc1ccccc1` (single isomer, unassigned) [Example 120], the IC50 (DYRK1A) was 0.161 µM and the IC50 [1] was 0.003 µM.
For `Cc1nc2ccc(-c3cc(N)nc(N)c3)nc2n1C[C@@H](C)N(C)c1ccccc1` (single isomer, unassigned) [Example 121], the IC50 (DYRK1A) was 0.041 µM and the IC50 [1] was 0.008 µM.
`Cc1nc2ccc(-c3cc(N)nc(N)c3)nc2n1C[C@H](C)N(C)c1ccccc1` (single isomer, unassigned) [Example 122] was tested, and the IC50 (DYRK1A) was 0.122 µM and the IC50 [1] was 0.02 µM.
Work on `Cc1nc2ccc(-c3cc(N)nc(N)c3)nc2n1C[C@H](C)Oc1cccc(F)c1` (single isomer, unassigned) [Example 123] yielded an IC50 (DYRK1A) of 0.082 µM and an IC50 [1] of 0.01 µM.
`Cc1nc2ccc(-c3cc(N)nc(N)c3)nc2n1C[C@@H](C)Oc1cccc(F)c1` (single isomer, unassigned) [Example 124] showed an IC50 (DYRK1A) of 0.061 µM and an IC50 [1] of 0.006 µM.
Compound `COc1cccc(O[C@@H](C)Cn2c(C)nc3ccc(-c4cc(N)nc(N)c4)nc32)c1` (single isomer, unassigned) [Example 125] has an IC50 (DYRK1A) of 0.151 µM and an IC50 [1] of 0.022 µM.
`COc1cccc(O[C@H](C)Cn2c(C)nc3ccc(-c4cc(N)nc(N)c4)nc32)c1` (single isomer, unassigned) [Example 126] gave an IC50 (DYRK1A) of 0.271 µM and an IC50 [1] of 0.055 µM.
Compound `Cc1cccc(O[C@H](C)Cn2c(C)nc3ccc(-c4cc(N)nc(N)c4)nc32)c1` (single isomer, unassigned) [Example 128] has an IC50 (DYRK1A) of 0.163 µM and an IC50 [1] of 0.037 µM.
`Cc1nc2ccc(-c3cc(N)nc(N)c3)nc2n1C[C@H](C)Oc1ccc(F)cc1` (single isomer, unassigned) [Example 129] was tested, and the IC50 (DYRK1A) was 0.13 µM and the IC50 [1] was 0.037 µM.
For `Cc1ccccc1O[C@@H](C)Cn1c(C)nc2ccc(-c3cc(N)nc(N)c3)nc21` (single isomer, unassigned) [Example 131], the IC50 (DYRK1A) was 0.045 µM and the IC50 [1] was 0.016 µM.
Compound `Cc1ccccc1O[C@H](C)Cn1c(C)nc2ccc(-c3cc(N)nc(N)c3)nc21` (single isomer, unassigned) [Example 132] has an IC50 (DYRK1A) of 0.207 µM and an IC50 [1] of 0.038 µM.
Compound `Cc1nc2ccc(-c3cc(N)nc(N)c3)nc2n1C[C@H](C)Oc1ccccc1F` (single isomer, unassigned) [Example 133] has an IC50 (DYRK1A) of 0.074 µM and an IC50 [1] of 0.015 µM.
In the case of `Cc1nc2ccc(-c3cc(N)nc(N)c3)nc2n1C[C@@H](C)Oc1ccccc1F` (single isomer, unassigned) [Example 134], the IC50 (DYRK1A) is reported as 0.205 µM and the IC50 [1] is reported as 0.038 µM.
`Cc1nc2ccc(-c3cc(N)nc(N)c3)nc2n1C[C@H](C)Sc1ccccc1` (single isomer, unassigned) [Example 135] gave an IC50 (DYRK1A) of 0.098 µM and an IC50 [1] of 0.016 µM.
In the case of `Cc1nc2ccc(-c3cc(N)nc(N)c3)nc2n1C[C@@H](C)Sc1ccccc1` (single isomer, unassigned) [Example 136], the IC50 (DYRK1A) is reported as 0.247 µM and the IC50 [1] is reported as 0.028 µM.
`Cc1nc2ccc(-c3cc(N)nc(N)c3)nc2n1[C@H]1C[C@H]1Cc1ccccc1` (single isomer, unassigned) [Example 137] gave an IC50 (DYRK1A) of 0.197 µM and an IC50 [1] of 0.048 µM.
`Cc1nc2ccc(-c3cc(N)nc(N)c3)nc2n1[C@H]1C[C@@H]1Cc1ccccc1` (single isomer, unassigned) [Example 138] gave an IC50 (DYRK1A) of 0.1 µM and an IC50 [1] of 0.052 µM.
In the case of `Cc1nc2ccc(-c3cc(N)nc(N)c3)nc2n1[C@@H]1C[C@@H]1Cc1ccccc1` (single isomer, unassigned) [Example 140], the IC50 (DYRK1A) is reported as 0.024 µM and the IC50 [1] is reported as 0.007 µM.
`COc1ccccc1O[C@@H](C)Cn1c(C)nc2ccc(-c3cc(N)nc(N)c3)nc21` (single isomer, unassigned) [Example 141] gave an IC50 (DYRK1A) of 0.191 µM and an IC50 [1] of 0.01 µM.
With `Cc1nc2ccc(-c3cc(N)nc(N)c3)nc2n1C[C@H](C)Oc1cccc(Cl)n1` (single isomer, unassigned) [Example 176] the IC50 (DYRK1A) was 0.223 µM and the IC50 [1] was 0.093 µM.
With `Cc1nc2ccc(-c3cc(N)nc(N)c3)nc2n1C[C@@H](C)Oc1ccc(F)cn1` (single isomer, unassigned) [Example 179] the IC50 (DYRK1A) was 0.237 µM and the IC50 [1] was 0.023 µM.
`Cc1nc2ccc(-c3cc(N)nc(N)c3)nc2n1C[C@H](C)Oc1ncccc1Br` (single isomer, unassigned) [Example 182] was tested, and the IC50 (DYRK1A) was 0.175 µM and the IC50 [1] was 0.026 µM.
`Cc1nc2ccc(-c3cc(N)nc(N)c3)nc2n1C[C@H](C)Oc1cccc(F)n1` (single isomer, unassigned) [Example 188] was tested, and the IC50 (DYRK1A) was 0.181 µM and the IC50 [1] was 0.065 µM.
With `Cc1nc2ccc(-c3cc(N)nc(N)c3)nc2n1C[C@H](C)Oc1ncccc1Cl` (single isomer, unassigned) [Example 190] the IC50 (DYRK1A) was 0.148 µM and the IC50 [1] was 0.032 µM.
In the case of `Cc1nc2ccc(-c3cc(N)nc(N)c3)nc2n1CCc1ccc2c(c1)OCCO2` [Example 77, 4-{3-[2-(2,3-dihydro-1,4-benzodioxin-6-yl)ethyl]-2-methyl-3H-imidazo[4,5-b]pyridin-5-yl}pyridine-2,6-diamine], the IC50 (DYRK1A) is reported as 0.077 µM and the IC50 [1] is reported as 0.008 µM.
With `Cc1nc2ccc(-c3cc(N)nc(N)c3)nc2n1CCc1ccccc1` [Example 83, 4-[2-methyl-3-(2-phenylethyl)-3H-imidazo[4,5-b]pyridin-5-yl]pyridine-2,6-diamine] the IC50 (DYRK1A) was 0.037 µM and the IC50 [1] was 0.007 µM.
In the case of `Cc1nc2ccc(-c3cc(N)nc(N)c3)nc2n1Cc1ccnc(F)c1` [Example 84, 4-{3-[(2-fluoropyridin-4-yl)methyl]-2-methyl-3H-imidazo[4,5-b]pyridin-5-yl}pyridine-2,6-diamine], the IC50 (DYRK1A) is reported as 0.113 µM and the IC50 [1] is reported as 0.019 µM.
`Cc1nc2ccc(-c3cc(N)nc(N)c3)nc2n1CCC1CCCO1` (stereo not shown) [Example 85, 4-{2-methyl-3-[2-(tetrahydrofuran-2-yl)ethyl]-3H-imidazo[4,5-b]pyridin-5-yl}pyridine-2,6-diamine] showed an IC50 (DYRK1A) of 0.143 µM and an IC50 [1] of 0.016 µM.
For `Cc1nc2ccc(-c3cc(N)nc(N)c3)nc2n1CC1CC1C` (stereo not shown) [Example 86, 4-{2-methyl-3-[(2-methylcyclopropyl)methyl]-3H-imidazo[4,5-b]pyridin-5-yl}pyridine-2,6-diamine], the IC50 (DYRK1A) was 0.151 µM and the IC50 [1] was 0.019 µM.
With `CCC1(Cn2c(C)nc3ccc(-c4cc(N)nc(N)c4)nc32)CC1` [Example 88, 4-{3-[(1-ethylcyclopropyl)methyl]-2-methyl-3H-imidazo[4,5-b]pyridin-5-yl}pyridine-2,6-diamine] the IC50 (DYRK1A) was 0.103 µM and the IC50 [1] was 0.012 µM.
Work on `COc1cccc2c1CCC(n1c(C)nc3ccc(-c4cc(N)nc(N)c4)nc31)C2` (stereo not shown) [Example 93, 4-[3-(5-methoxy-1,2,3,4-tetrahydronaphthalen-2-yl)-2-methyl-3H-imidazo[4,5-b]pyridin-5-yl]pyridine-2,6-diamine] yielded an IC50 (DYRK1A) of 0.107 µM and an IC50 [1] of 0.007 µM.
`Cc1nc2ccc(-c3cc(N)nc(N)c3)nc2n1CC1CC1(C)C` (stereo not shown) [Example 99, 4-{3-[(2,2-dimethylcyclopropyl)methyl]-2-methyl-3H-imidazo[4,5-b]pyridin-5-yl}pyridine-2,6-diamine] showed an IC50 (DYRK1A) of 0.104 µM and an IC50 [1] of 0.016 µM.
